Results from PubChem BioAssay AID192 (DTP/NCI, 2004).
Toxic doses and inconclusive results are not listed. The calls were made as follows: active = survival T/C of 150% or more; inactive = T/C below 125% in these data.

Tested on: BDF1 mice, B16 melanoma ip, median survival T/C
Assay: NCI In Vivo Anticancer Drug Screen. Data for tumor model B16 Melanoma (intraperitoneal) in B6D2F1 (BDF1) mice
Conditions: endpoint: median survival time, higher = longer survival
Summary of the method: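 Tumor-bearing mice received test compound or vehicle. Survival or tumor size was then measured in both groups. The treated-group figure was divided by the control-group figure.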

[1] = dose: 100.0 mg/kg/injection, schedule: Q01DX009 (ip), vehicle: Klucel (hydroxypropylcellulose) (HPC)
[2] = dose: 200.0 mg/kg/injection, schedule: Q01DX009 (ip), vehicle: Klucel (hydroxypropylcellulose) (HPC)
[3] = dose: 100.0 mg/kg/injection, schedule: Q04DX003 (ip), vehicle: Klucel (hydroxypropylcellulose) (HPC)
[4] = dose: 200.0 mg/kg/injection, schedule: Q04DX003 (ip), vehicle: Klucel (hydroxypropylcellulose) (HPC)
[5] = dose: 400.0 mg/kg/injection, schedule: Q04DX003 (ip), vehicle: Klucel (hydroxypropylcellulose) (HPC)
[6] = dose: 25.0 mg/kg/injection, schedule: Q01DX009 (ip), vehicle: Klucel (hydroxypropylcellulose) (HPC)
[7] = dose: 50.0 mg/kg/injection, schedule: Q01DX009 (ip), vehicle: Klucel (hydroxypropylcellulose) (HPC)

Measured: T/C

C=CCC(C(C)=O)C(=O)OCC (configuration not stated)
inactive: [1] 106 % of control | [2] 110 % of control | dose: 400.0 mg/kg/injection, schedule: Q01DX009 (ip), vehicle: Klucel (hydroxypropylcellulose) (HPC) 110 % of control

Cc1cc(Cl)ccc1NC(=O)c1ccccc1C(=O)O
inactive: [1] 96 % of control | [3] 93 % of control | [2] 100 % of control | [4] 96 % of control | [5] 106 % of control

NNC(=O)CCC(=O)NN
inactive: dose: 100.0 mg/kg/injection, schedule: Q01DX009 (ip), vehicle: saline with Tween-80 102 % of control | dose: 200.0 mg/kg/injection, schedule: Q01DX009 (ip), vehicle: saline with Tween-80 104 % of control | dose: 400.0 mg/kg/injection, schedule: Q01DX009 (ip), vehicle: saline with Tween-80 93 % of control

COc1cc(C)c(C2NC(=O)c3ccccc3N2)cc1C (configuration not stated)
inactive: [6] 103 % of control | [7] 113 % of control | [1] 115 % of control | [2] 121 % of control

Nc1ncn(C2CC(O)C(CO)O2)c(=O)n1 (configuration not stated)
inactive: dose: 0.01 mg/kg/injection, schedule: Q01DX009 (ip), vehicle: Klucel (hydroxypropylcellulose) (HPC) 98 % of control | dose: 0.03 mg/kg/injection, schedule: Q01DX009 (ip), vehicle: Klucel (hydroxypropylcellulose) (HPC) 109 % of control | dose: 0.05 mg/kg/injection, schedule: Q01DX009 (ip), vehicle: Klucel (hydroxypropylcellulose) (HPC) 99 % of control | dose: 0.06 mg/kg/injection, schedule: Q01DX009 (ip), vehicle: Klucel (hydroxypropylcellulose) (HPC) 98 % of control | dose: 0.1 mg/kg/injection, schedule: Q01DX009 (ip), vehicle: Klucel (hydroxypropylcellulose) (HPC) 100 % of control | dose: 0.12 mg/kg/injection, schedule: Q01DX009 (ip), vehicle: Klucel (hydroxypropylcellulose) (HPC) 105 % of control | dose: 0.2 mg/kg/injection, schedule: Q01DX009 (ip), vehicle: Klucel (hydroxypropylcellulose) (HPC) 100 % of control | dose: 0.25 mg/kg/injection, schedule: Q01DX009 (ip), vehicle: Klucel (hydroxypropylcellulose) (HPC) 102 % of control | dose: 0.4 mg/kg/injection, schedule: Q01DX009 (ip), vehicle: Klucel (hydroxypropylcellulose) (HPC) 105 % of control | dose: 0.5 mg/kg/injection, schedule: Q01DX009 (ip), vehicle: Klucel (hydroxypropylcellulose) (HPC) 104 % of control | dose: 0.8 mg/kg/injection, schedule: Q01DX009 (ip), vehicle: Klucel (hydroxypropylcellulose) (HPC) 122 % of control

Cc1ccc(S(=O)(=O)N=S2CCCC2)cc1
inactive: dose: 50.0 mg/kg/injection, schedule: Q04DX003 (ip), vehicle: Klucel (hydroxypropylcellulose) (HPC) 100 % of control | [3] 102 % of control | [4] 103 % of control | [5] 102 % of control

CN(C)CCC(=O)c1ccccc1
inactive: dose: 6.25 mg/kg/injection, schedule: Q01DX009 (ip), vehicle: saline 105 % of control | dose: 12.5 mg/kg/injection, schedule: Q01DX009 (ip), vehicle: saline 105 % of control

C(=N\C(/N=C/c1ccco1)c1ccco1)/c1ccco1
inactive: dose: 40.0 mg/kg/injection, schedule: Q01DX009 (ip), vehicle: Klucel (hydroxypropylcellulose) (HPC) 94 % of control | dose: 80.0 mg/kg/injection, schedule: Q01DX009 (ip), vehicle: Klucel (hydroxypropylcellulose) (HPC) 89 % of control | dose: 160.0 mg/kg/injection, schedule: Q01DX009 (ip), vehicle: Klucel (hydroxypropylcellulose) (HPC) 97 % of control | dose: 320.0 mg/kg/injection, schedule: Q01DX009 (ip), vehicle: Klucel (hydroxypropylcellulose) (HPC) 92 % of control

S=c1[nH]nc(NC2CCCCC2)s1
inactive: [6] 97 % of control | [7] 91 % of control | [3] 97 % of control | [4] 91 % of control

COc1cc2c(cc1OC)[C@H]1CNC[C@H]1[C@@H](c1ccccc1)C2
inactive: dose: 50.0 mg/kg/injection, schedule: Q01DX009 (ip), vehicle: saline 123 % of control | dose: 100.0 mg/kg/injection, schedule: Q01DX009 (ip), vehicle: saline 114 % of control
